Common to all, as to format: cell-based
Experiment [1] relates to Enterococcus faecalis (efa). Nature of the experiment: In vitro antibacterial activity, standard agar dilution method, efa. As to conditions: clinically separated strains, read-out: Antibiotic Activity MIC efa. The text has this:
(§1) Strains for test: all the clinically separated strains below were purchased from public facilities.
(§2) Methicillin-resistant Staphylococcus aureus (MRSA), methicillin-resistant Staphylococcus epidermidis (MRSE), methicillin-sensitive Staphylococcus aureus (MSSA), methicillin-sensitive Staphylococcus epidermidis (MSSE), Enterococcus faecalis (efa), Enterococcus faecium (efm), streptococcus pneumoniae. Obtained from: Qianfoshan Hospital, First People's Hospital of Yunnan Province, Renji Hospital of Shanghai, People's Hospital of Jilin Province, Southwest Hospital.
(§3) some compounds of the present invention (chemical names and preparation methods thereof are as described in Preparation Examples of the compounds); linezolid (commercially available) and compound 38 (prepared following the process of Patent US2011098471).
(§4) standard agar dilution method, reference was made to National Committee for Clinical Laboratory Standards. 2006. Methods for Dilution Antimicrobial Susceptibility Tests for Bacteria That Grow Aerobically, Approved Standard Seventh Edition M7-A7.
(In general: In agar dilution the substance is mixed into plates at graded concentrations.)

Experiment [2] deals with methicillin-sensitive Staphylococcus aureus (MSSA). Nature of the experiment: In vitro antibacterial activity, standard agar dilution method, MSSA. The following applies: clinically separated strains, read-out: Antibiotic Activity MIC MSSA.
From the text: as §1, §2, §3, §4

The subject of experiment [3] is Methicillin-resistant Staphylococcus aureus (MRSA). Briefly: In vitro antibacterial activity, standard agar dilution method, MRSA. The following applies: clinically separated strains, read-out: Antibiotic Activity MIC MRSA.
From the text: as §1, §2, §3, §4

For experiment [4], the system named is Enterococcus faecium (efm). Briefly: In vitro antibacterial activity, standard agar dilution method, efm. As to conditions: clinically separated strains, read-out: Antibiotic Activity MIC efm.
From the text: as §1, §2, §3, §4

Experiment [5] concerns streptococcus pneumoniae. Briefly: In vitro antibacterial activity, standard agar dilution method, Streptococcus pneumoniae. The following applies: clinically separated strains.
From the text: as §1, §2, §3, §4

The subject of experiment [6] is methicillin-resistant Staphylococcus epidermidis (MRSE). Briefly: In vitro antibacterial activity, standard agar dilution method, MRSE. As to conditions: clinically separated strains, read-out: Antibiotic Activity MIC MRSE.
From the text: as §1, §2, §3, §4

Experiment [7] relates to methicillin-sensitive Staphylococcus epidermidis (MSSE). Nature of the experiment: In vitro antibacterial activity, standard agar dilution method, MSSE. The following applies: clinically separated strains, read-out: Antibiotic Activity MIC MSSE.
From the text: as §1, §2, §3, §4

Values after ≈ are worked out from the molar mass of the structure shown.

One may read the MIC as the lowest concentration that inhibits growth of the organism.

For `Cn1nnc(N2Cc3ccc(-c4ccc(N5C[C@H](CO)OC5=O)cc4F)cc3C2)n1` [Compound 1, (R)-3-(3-fluoro-4-(2-(2-methyl-2H-tetrazol-5-yl)isoindolin-5-yl)phenyl)-5-(hydroxylmethyl)oxazolidin-2-one], the MIC in experiment [1] came out at 1 µg/mL (≈ 2.44 µM); in experiment [2] it was 1 µg/mL (≈ 2.44 µM); in experiment [3] it was 1 µg/mL (≈ 2.44 µM); in experiment [4], 0.5 µg/mL (≈ 1.22 µM); in experiment [6], 0.5 µg/mL (≈ 1.22 µM); in experiment [7] it was 0.5 µg/mL (≈ 1.22 µM). The “Antibiotic Activity MIC Streptococcus pneumoniae” value in experiment [5] came out at 0.25 µg/mL.

Consider `CC(=O)NC[C@H]1CN(c2ccc(-c3ccc4c(c3)CN(c3nnn(C)n3)C4)c(F)c2)C(=O)O1` [Compound 2, (S)—N-((3-(3-fluoro-4-(2-(2-methyl-2H-tetrazol-5-yl)isoindolin-5-yl)phenyl)-2-oxo-oxazolidin-5-yl)methyl)acetamide], for which the MIC in experiment [1] came out at 0.5 µg/mL (≈ 1.11 µM); in experiment [2] it was 0.5 µg/mL (≈ 1.11 µM); in experiment [3], 0.25 µg/mL (≈ 0.554 µM); in experiment [4], 0.5 µg/mL (≈ 1.11 µM); in experiment [6] it was 0.25 µg/mL (≈ 0.554 µM); in experiment [7], 0.5 µg/mL (≈ 1.11 µM). Further, the “Antibiotic Activity MIC Streptococcus pneumoniae” value in experiment [5] amounted to 0.5 µg/mL.

`O=C1O[C@@H](CO)CN1c1ccc(-c2ccc3c(c2)CN(c2cnn[nH]2)C3)c(F)c1` [Compound 3, (R)-3-(4-(2-(1H-1,2,3-triazol-5-yl)isoindolin-5-yl)-3-fluorophenyl)-5-(hydroxylmethyl)oxazolidin-2-one]: the minimum inhibitory concentration (MIC) in experiment [1] was 0.5 µg/mL (≈ 1.26 µM); in experiment [2] it was 0.5 µg/mL (≈ 1.26 µM); in experiment [3], 0.5 µg/mL (≈ 1.26 µM); in experiment [4], 0.5 µg/mL (≈ 1.26 µM); in experiment [6], 0.25 µg/mL (≈ 0.632 µM); in experiment [7], 0.125 µg/mL (≈ 0.316 µM). In experiment [5], the “Antibiotic Activity MIC Streptococcus pneumoniae” value turned out to be 0.5 µg/mL.

For `CC(=O)NC[C@H]1CN(c2ccc(-c3ccc4c(c3)CN(c3cnn[nH]3)C4)c(F)c2)C(=O)O1` [Compound 4, (S)—N-((3-(4-(2-(1H-1,2,3-triazol-5-yl)isoindolin-5-yl)-3-fluorophenyl)-2-oxo-oxazolidin-5-yl)methyl)acetamide], the minimum inhibitory concentration (MIC) worked out at 0.25 µg/mL (≈ 0.573 µM) in experiment [1]; 0.25 µg/mL (≈ 0.573 µM) in experiment [2]; 0.25 µg/mL (≈ 0.573 µM) in experiment [3]; 0.25 µg/mL (≈ 0.573 µM) in experiment [4]; 0.25 µg/mL (≈ 0.573 µM) in experiment [6]; 0.125 µg/mL (≈ 0.286 µM) in experiment [7]. In addition, the “Antibiotic Activity MIC Streptococcus pneumoniae” value in experiment [5] came out at 0.5 µg/mL.

As for `Cn1nnnc1N1Cc2ccc(-c3ccc(N4C[C@H](CO)OC4=O)cc3F)cc2C1` [Compound 19], the minimal inhibitory concentration (MIC) in experiment [1] amounted to 2 µg/mL (≈ 4.87 µM); in experiment [2], 1 µg/mL (≈ 2.44 µM); in experiment [3] it was 1 µg/mL (≈ 2.44 µM); in experiment [4], 2 µg/mL (≈ 4.87 µM); in experiment [6], 1 µg/mL (≈ 2.44 µM); in experiment [7] it was 0.5 µg/mL (≈ 1.22 µM). For the same compound, the “Antibiotic Activity MIC Streptococcus pneumoniae” value in experiment [5] was 1 µg/mL.

With `O=C1O[C@@H](CO)CN1c1ccc(-c2ccc3c(c2)CN(c2ccn[nH]2)C3)c(F)c1` [Compound 20], the MIC in experiment [1] is 8 µg/mL (≈ 20.3 µM); in experiment [2] it was 1 µg/mL (≈ 2.54 µM); in experiment [3], 2 µg/mL (≈ 5.07 µM); in experiment [4] it was 8 µg/mL (≈ 20.3 µM); in experiment [6] it was 0.5 µg/mL (≈ 1.27 µM); in experiment [7], 0.5 µg/mL (≈ 1.27 µM).

As for `CC(=O)NC[C@H]1CN(c2ccc(-c3ccc4nc(-c5nnn(C)n5)cn4c3)c(F)c2)C(=O)O1` [Compound 38, reference compound], the MIC in experiment [1] worked out at 0.25 µg/mL (≈ 0.555 µM); in experiment [2] it was 0.5 µg/mL (≈ 1.11 µM); in experiment [3], 0.5 µg/mL (≈ 1.11 µM); in experiment [4], 0.5 µg/mL (≈ 1.11 µM); in experiment [6] it was 0.25 µg/mL (≈ 0.555 µM); in experiment [7], 0.5 µg/mL (≈ 1.11 µM). Further, the “Antibiotic Activity MIC Streptococcus pneumoniae” value in experiment [5] was determined as 0.5 µg/mL.

`CC(=O)NC[C@H]1CN(c2ccc(N3CCOCC3)c(F)c2)C(=O)O1` [Linezolid, reference compound]: the MIC in experiment [1] was determined as 2 µg/mL (≈ 5.93 µM); in experiment [2], 2 µg/mL (≈ 5.93 µM); in experiment [3], 2 µg/mL (≈ 5.93 µM); in experiment [4] it was 2 µg/mL (≈ 5.93 µM); in experiment [6], 1 µg/mL (≈ 2.96 µM); in experiment [7], 2 µg/mL (≈ 5.93 µM). Moreover, the “Antibiotic Activity MIC Streptococcus pneumoniae” value in experiment [5] was 2 µg/mL.

The record behind these values is patent publication US9487545B2, “Fused ring-containing oxazolidinones antibiotics” (Xuanzhu Pharma Co., Ltd., priority 2011, dated 2016).
